Values of other authors in publication PMC3085958 (Journal of medicinal chemistry, 2011).
Marks after values point to notes of the source that are not given here.

Target: CB2 receptors (Homo sapiens, UniProt P34972)
Settings: Kb value

Chain of CB2 receptors (P34972 whole entry): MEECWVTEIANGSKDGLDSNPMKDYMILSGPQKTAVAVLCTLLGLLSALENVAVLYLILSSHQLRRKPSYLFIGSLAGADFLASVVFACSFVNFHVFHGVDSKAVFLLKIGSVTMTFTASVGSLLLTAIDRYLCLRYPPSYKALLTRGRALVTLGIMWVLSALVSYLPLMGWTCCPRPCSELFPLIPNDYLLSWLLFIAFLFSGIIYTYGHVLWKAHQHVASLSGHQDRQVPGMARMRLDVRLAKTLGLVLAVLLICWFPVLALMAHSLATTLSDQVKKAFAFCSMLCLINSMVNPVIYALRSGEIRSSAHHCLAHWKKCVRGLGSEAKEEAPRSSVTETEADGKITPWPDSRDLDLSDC

COc1cccc([C@H]2C[C@@H](N[C@H](C)c3ccccc3)C(=O)N2c2ccc(C(F)(F)F)cc2)c1 [Ligand 3]
CB2 Kb (in the CB2 Ki column): > 1,980 ^c nM
